“Also recorded” adds a separate entry of the source.
Legend:
[1] = ATP pharmacokinetics: blood plasma (extracellular) ATP levels, Phase I study; type: in vivo, human; conditions: for Initial Extracellular ATP Concentration, Median: ITT
Description: (§1) The solution was administered by continuous intravenous infusions using an Ivac or similar infusion device through venous access in a peripheral vein. If venous access was a problem, either a Hickman catheter or its equivalent, or an Infusaport or its equivalent was inserted to provide vascular access.
(§2) The 50 μg/kg/min dose could be reduced to 25 μg/kg/min if adverse effects occurred. […] Succeeding infusions in that patient were at the infusion dose tolerated at the end of the previous treatment. If adverse events occurred in patients being infused at 25 μg/kg/min, the infusions were terminated and the patient received no additional infusions.

[2] = Karnofsky Performance Status, Phase I study; type: in vivo, human; conditions: for Karnofsky Performance Status, Change from Baseline, Mean / Karnofsky Performance Status, Change from Baseline, Median / Karnofsky Performance Status, Observed Values, Mean / Karnofsky Performance Status, Observed Values, Median: ITT
Source text: The present patient population was clinically deteriorating rapidly with four of the fifteen patients not meeting the protocol inclusion criteria and being granted exemptions (page 15-18). An amendment to the protocol had to be sought because Karnofsky Performance Status of some patients dropped between the screening date and the first pre-infusion date. Considering the clinical status of the present patient population at the start of the trial along with Karnofsky Performance Score being a surrogate end-point for Quality of Life in advanced, refractory, terminal cancers, these findings support claims reciting benefits to quality of life by claimed treatment in a human host in need thereof.

[3] = Safety and tolerability (NCI CTC version 2 toxicity grades) of ATP infusion, Phase I study; type: in vivo, human
Description: Two of the seven evaluable patients had advanced prostate cancer with bone metastases and one each had advanced mesothelioma, metastatic breast cancer, metastatic melanoma, metastatic colon cancer and renal cell carcinoma.
as §2

[4] = cited from earlier work
[5] = ATP pharmacokinetics: initial ATP release rate from red blood cells into blood plasma, Phase I study; type: in vivo, human
Description: as §1, §2

[6] = Week 1 (Infusion 1), baseline, N=15
[7] = low levels of ATP administered directly into the duodenum

## Nc1ncnc2c1ncn2[C@@H]1O[C@H](COP(=O)(O)OP(=O)(O)OP(=O)(O)O)[C@@H](O)[C@H]1O [ATP, adenosine 5′-triphosphate]
[1]; ATP continuously for eight hours
  blood plasma (extracellular) ATP levels: increases
[1]; Week 1 (Infusion 1), 4 hours into infusion, N=13
  Initial Extracellular ATP Concentration, Median: 0.109 µM
[1]; Week 1 (Infusion 1), 8.25 hours, N=1
  Initial Extracellular ATP Concentration, Median: 0.141 µM
[1]; Week 1 (Infusion 1), 9 hours, N=10
  Initial Extracellular ATP Concentration, Median: 0.150 µM
[1]; Week 1 (Infusion 1), 10 hours, N=12
  Initial Extracellular ATP Concentration, Median: 0.091 µM
[1]; Week 1 (Infusion 1), 11 hours, N=12
  Initial Extracellular ATP Concentration, Median: 0.062 µM
[1]; Week 1 (Infusion 1), 12 hours, N=11
  Initial Extracellular ATP Concentration, Median: 0.044 µM
[1]; Week 1 (Infusion 1), 14 hours, N=8
  Initial Extracellular ATP Concentration, Median: 0.029 µM
[1]; Week 1 (Infusion 1), 16 hours, N=10
  Initial Extracellular ATP Concentration, Median: 0.050 µM
[1]; Week 1 (Infusion 1), 20 hours, N=8
  Initial Extracellular ATP Concentration, Median: 0.052 µM
[1]; Week 1 (Infusion 1), 24 hours, N=12
  Initial Extracellular ATP Concentration, Median: 0.079 µM
[1]; Week 1 (Infusion 1), […], N=10
  Initial Extracellular ATP Concentration, Median: 0.238 µM
[1]; Week 3 (Infusion 3), 4 hours into infusion, N=9
  Initial Extracellular ATP Concentration, Median: 0.200 µM
[1]; Week 3 (Infusion 3), 8 hours (before the end), N=9
  Initial Extracellular ATP Concentration, Median: 0.240 µM
[1]; Week 3 (Infusion 3), 8.25 hours, N=1
  Initial Extracellular ATP Concentration, Median: 0.055 µM
[1]; Week 3 (Infusion 3), 9 hours, N=9
  Initial Extracellular ATP Concentration, Median: 0.170 µM
[1]; Week 3 (Infusion 3), 10 hours, N=9
  Initial Extracellular ATP Concentration, Median: 0.060 µM
[1]; Week 3 (Infusion 3), 11 hours, N=10
  Initial Extracellular ATP Concentration, Median: 0.060 µM
[1]; Week 3 (Infusion 3), 12 hours, N=8
  Initial Extracellular ATP Concentration, Median: 0.065 µM
[1]; Week 3 (Infusion 3), 14 hours, N=6
  Initial Extracellular ATP Concentration, Median: 0.032 µM
[1]; Week 3 (Infusion 3), 16 hours, N=5
  Initial Extracellular ATP Concentration, Median: 0.040 µM
[1]; Week 3 (Infusion 3), 20 hours, N=5
  Initial Extracellular ATP Concentration, Median: 0.070 µM
[1]; Week 3 (Infusion 3), 24 hours, N=8
  Initial Extracellular ATP Concentration, Median: 0.044 µM
[1]; Week 3 (Infusion 3), Time ‘0’ (pre-infusion), N=10
  Initial Extracellular ATP Concentration, Median: 0.055 µM
[1]; Week 3 (Infusion 3), […], N=9
  Initial Extracellular ATP Concentration, Median: 0.200 µM
[1]; Week 8 (infusion 8), 4 hours into infusion, N=3
  Initial Extracellular ATP Concentration, Median: 0.390 µM
[1]; Week 8 (infusion 8), Time ‘0’ (pre-infusion), N=3
  Initial Extracellular ATP Concentration, Median: 0.080 µM
[2]; ITT patient population
  Karnofsky Performance Status: stabilize
[2]; [6]
  Karnofsky Performance Status, Change from Baseline, Mean: 0.0%
  Karnofsky Performance Status, Change from Baseline, Median: 0.0%
  Karnofsky Performance Status, Observed Values, Mean: 78.0%
  Karnofsky Performance Status, Observed Values, Median: 80.00%
[2]; Week 2 (Infusion 2), N=14
  Karnofsky Performance Status, Change from Baseline, Mean: −2.1%
  Karnofsky Performance Status, Change from Baseline, Median: 0.0%
  Karnofsky Performance Status, Observed Values, Mean: 77.1%
  Karnofsky Performance Status, Observed Values, Median: 75.0%
[2]; Week 3 (Infusion 3), N=13
  Karnofsky Performance Status, Change from Baseline, Mean: −2.3%
  Karnofsky Performance Status, Change from Baseline, Median: 0.0%
  Karnofsky Performance Status, Observed Values, Mean: 76.9%
  Karnofsky Performance Status, Observed Values, Median: 80.0%
[2]; Week 4 (Infusion 4), N=11
  Karnofsky Performance Status, Change from Baseline, Mean: −0.9%
  Karnofsky Performance Status, Change from Baseline, Median: 0.0%
  Karnofsky Performance Status, Observed Values, Mean: 78.2%
  Karnofsky Performance Status, Observed Values, Median: 80.0%
[2]; Week 5 (Infusion 5), N=10
  Karnofsky Performance Status, Change from Baseline, Mean: −7.0%
  Karnofsky Performance Status, Change from Baseline, Median: 0.0%
  Karnofsky Performance Status, Observed Values, Mean: 71.0%
  Karnofsky Performance Status, Observed Values, Median: 75.0%
[2]; Week 6 (Infusion 6), N=9
  Karnofsky Performance Status, Change from Baseline, Mean: −4.4%
  Karnofsky Performance Status, Change from Baseline, Median: 0.0%
  Karnofsky Performance Status, Observed Values, Mean: 74.4%
  Karnofsky Performance Status, Observed Values, Median: 80.0%
[2]; Week 7 (Infusion 7), N=7
  Karnofsky Performance Status, Change from Baseline, Mean: −4.3%
  Karnofsky Performance Status, Change from Baseline, Median: 0.0%
  Karnofsky Performance Status, Observed Values, Mean: 72.9%
  Karnofsky Performance Status, Observed Values, Median: 70.0%
[2]; Week 8 (Infusion 8), N=7
  Karnofsky Performance Status, Change from Baseline, Mean: −5.7%
  Karnofsky Performance Status, Change from Baseline, Median: −10.0%
  Karnofsky Performance Status, Observed Values, Mean: 71.4%
  Karnofsky Performance Status, Observed Values, Median: 70.0%
[2]; Week 10 (Follow-up), N=6
  Karnofsky Performance Status, Change from Baseline, Mean: −5.0%
  Karnofsky Performance Status, Change from Baseline, Median: −5.0%
  Karnofsky Performance Status, Observed Values, Mean: 73.3%
  Karnofsky Performance Status, Observed Values, Median: 70.0%
[2]; Week 13 (Follow-up), N=5
  Karnofsky Performance Status, Change from Baseline, Mean: −4.0%
  Karnofsky Performance Status, Change from Baseline, Median: 0.0%
  Karnofsky Performance Status, Observed Values, Mean: 76.0%
  Karnofsky Performance Status, Observed Values, Median: 80.0%
[2]; patients 502-505, week 1 (pre-dose) to week 13 (follow-up)
  Karnofsky Performance Status: Small increases
[3]; Patient 501
  Lab. Toxicity: Nil noted
[3]; Patient 501, Ca Colon, 50 & 75 μg/kg/min, Weeks 1&2
  Clin. Toxicity and CTC-Grade: I Flushing
[3]; Patient 502
  Lab. Toxicity: Nil noted
[3]; Patient 502, Mesothelioma, 50, 75, & 100 μg/kg/min, Weeks 1-8
  Clin. Toxicity and CTC-Grade: I Chest D/Dysp; also recorded: I Flushing; also recorded: I Anxiety
[3]; Patient 503
  Lab. Toxicity: Hb decreased, Grade II: Hb 8.0 g/dl
[3]; Patient 503, Prostate, 50, 75, & 100 μg/kg/min, Weeks 1-8
  Clin. Toxicity and CTC-Grade: II Confusion -
[3]; Patient 504
  Lab. Toxicity: Nil noted
[3]; Patient 505
  Lab. Toxicity: Nil noted
[3]; Patient 505, Melanoma, 50, 75 & 100 μg/kg/min, Weeks 1-8
  Clin. Toxicity and CTC-Grade: I Flushing; also recorded: AVBlock/CHB
[3]; Patient 506
  Lab. Toxicity: bilirubin and LFT's - disease progression: Increasing
[3]; Patient 506, Ca Colon, 50 & 75 & 100 μg/kg/min, Weeks 1-6
  Clin. Toxicity and CTC-Grade: I Headache
[3]; Patient 507
  Lab. Toxicity: Nil noted
[3]; Patient 507, Ca Prostate, 50, 75 & 100 μg/kg/min, Weeks 1-8
  Clin. Toxicity and CTC-Grade: I Nasal stuffiness; also recorded: II increasing pain -
[3]; Patient 508, 50 μg/kg/min, Week 1
  Lab. Toxicity: Nil noted
[3]; Patient 508, first infusion at 50 μg/kg/min
  clinical toxicities: No clinical toxicities were noted
[3]; Patient 509, Renal cell carcinoma, 50, 75 & 100 μg/kg/min, Weeks 1-8
  Clin. Toxicity and CTC-Grade: I anxiety; also recorded: I nausea; also recorded: I vomiting
[3]; Patient 509, at FU
  Lab. Toxicity: AST/Alk Phos increase: At FU grade I
[3]; continuous 8 hour intravenous infusion, first nine patients
  patients tolerating the maximum allowable dose of 100 μg/kg/min: seven of nine
[3]; seen in patient 506
  tolerability in terminal patients: well tolerated
[4]; after the administration of ATP into the duodenum
  arterial oxygen pressure (PaO2): increase
[4]; [7]
  Pulmonary Vascular Resistance: reductions
  arterial blood pressure or heart rate: No effects
  blood flow: increases
  peripheral vascular resistance: reductions
[5]; Week 1 (infusion 1), 4 hours into infusion
  Initial ATP Release Rates Mean: 33.407 nM/min
[5]; Week 1 (infusion 1), 8 hours (before the end)
  Initial ATP Release Rates Mean: 47.224 nM/min
[5]; Week 1 (infusion 1), 8.25 hours
  Initial ATP Release Rates Mean: 10.400 nM/min
[5]; Week 1 (infusion 1), 9 hours
  Initial ATP Release Rates Mean: 25.408 nM/min
[5]; Week 1 (infusion 1), 10 hours
  Initial ATP Release Rates Mean: 13.959 nM/min
[5]; Week 1 (infusion 1), 11 hours
  Initial ATP Release Rates Mean: 14.743 nM/min
[5]; Week 1 (infusion 1), 12 hours
  Initial ATP Release Rates Mean: 12.565 nM/min
[5]; Week 1 (infusion 1), 14 hours
  Initial ATP Release Rates Mean: 12.067 nM/min
[5]; Week 1 (infusion 1), 16 hours
  Initial ATP Release Rates Mean: 15.331 nM/min
[5]; Week 1 (infusion 1), 20 hours
  Initial ATP Release Rates Mean: 20.063 nM/min
[5]; Week 1 (infusion 1), 24 hours
  Initial ATP Release Rates Mean: 17.452 nM/min
[5]; Week 1 (infusion 1), Time 0 (pre-infusion)
  Initial ATP Release Rates Mean: 15.469 nM/min
[5]; Week 1 (infusion 1), […]
  Initial ATP Release Rates Mean: 41.353 nM/min
[5]; Week 3 (Infusion 3), 4 hours into infusion
  Initial ATP Release Rates Mean: 55.414 nM/min
[5]; Week 3 (Infusion 3), 8 hours before the end
  Initial ATP Release Rates Mean: 48.283 nM/min
[5]; Week 3 (Infusion 3), 8.25 hours
  Initial ATP Release Rates Mean: 13.400 nM/min
[5]; Week 3 (Infusion 3), 9 hours
  Initial ATP Release Rates Mean: 34.992 nM/min
[5]; Week 3 (Infusion 3), 10 hours
  Initial ATP Release Rates Mean: 27.342 nM/min
[5]; Week 3 (Infusion 3), 11 hours
  Initial ATP Release Rates Mean: 18.888 nM/min
[5]; Week 3 (Infusion 3), 12 hours
  Initial ATP Release Rates Mean: 14.660 nM/min
[5]; Week 3 (Infusion 3), 14 hours
  Initial ATP Release Rates Mean: 10.390 nM/min
[5]; Week 3 (Infusion 3), 16 hours
  Initial ATP Release Rates Mean: 10.223 nM/min
[5]; Week 3 (Infusion 3), 20 hours
  Initial ATP Release Rates Mean: 11.708 nM/min
[5]; Week 3 (Infusion 3), 24 hours
  Initial ATP Release Rates Mean: 15.880 nM/min
[5]; Week 3 (Infusion 3), Time 0 (pre-infusion)
  Initial ATP Release Rates Mean: 18.228 nM/min
[5]; Week 3 (Infusion 3), […]
  Initial ATP Release Rates Mean: 38.780 nM/min
[5]; Week 8 (infusion 8), 4 hours into infusion
  Initial ATP Release Rates Mean: 28.700 nM/min
[5]; Week 8 (infusion 8), 8 hours (before the end)
  Initial ATP Release Rates Mean: 27.930 nM/min
[5]; Week 8 (infusion 8), 9 hours
  Initial ATP Release Rates Mean: 20.167 nM/min
[5]; Week 8 (infusion 8), 10 hours
  Initial ATP Release Rates Mean: 5.803 nM/min
[5]; Week 8 (infusion 8), 11 hours
  Initial ATP Release Rates Mean: 15.700 nM/min
[5]; Week 8 (infusion 8), 12 hours
  Initial ATP Release Rates Mean: 14.150 nM/min
[5]; Week 8 (infusion 8), 14 hours
  Initial ATP Release Rates Mean: 19.620 nM/min
[5]; Week 8 (infusion 8), 16 hours
  Initial ATP Release Rates Mean: 11.680 nM/min
[5]; Week 8 (infusion 8), 20 hours
  Initial ATP Release Rates Mean: 14.520 nM/min
[5]; Week 8 (infusion 8), 24 hours
  Initial ATP Release Rates Mean: 16.200 nM/min
[5]; Week 8 (infusion 8), Time 0 (pre-infusion)
  Initial ATP Release Rates Mean: 10.967 nM/min
[5]; Week 8 (infusion 8), […]
  Initial ATP Release Rates Mean: 11.267 nM/min
[5]; patients 502-505, time 0 to 8 hours
  average increases in Initial ATP Release Rates (from Red Blood Cells): 200-400%
